Test results published in publication PMC13224317 (SLAS discovery : advancing life sciences R & D, 2025).
Where “and” joins values, the source holds several entries; their conditions need not be identical. Equal values may be shown once. Read-outs that look alike come from different tables or passages of the source.

Tests used:
icSARS-CoV-2-nLuc [1] = test: microbe, parasite or virus in culture; assay type: cell-based, SARS-CoV-2
icSARS-CoV-2-nLuc [2] = test: microbe, parasite or virus in culture; assay type: cell-based, SARS-CoV-2; conditions: Severe acute respiratory syndrome coronavirus 2, 48 h, read-out: IC50 against icSARS-CoV-2-nLuc, immunofluorescence data
C3 cell line = test: Cytotoxicity toward the C3 cell line (single point at 10 μM and CC50); assay type: cell-based; conditions: raw well reading, duplicate wells
Procedure: The rate of false positive hits was 2.5% between the two biological replicates. […] The 3 compounds have CC50 equal to- or higher than 36 μM. Based on available information, these three compounds have not been tested against SARS-CoV-2 nor have any reports of antiviral activity, and therefore warrant further investigation.

icSARS-CoV-2-nLuc [3] = assay type: cell-based, SARS-CoV-2
icSARS-CoV-2-nLuc [4] = assay type: cell-based, SARS-CoV-2; remark: listed apart in the source
[5] = Severe acute respiratory syndrome coronavirus 2, A549-ACE2, read-out: IC50, susceptibility of icSARS-CoV-2-nLuc to reference drugs, luminescence readout

SMILES: CC(C)(C)NC(=O)N[C@H](C(=O)N1C[C@H]2[C@@H]([C@H]1C(=O)NC(CC1CCC1)C(=O)C(N)=O)C2(C)C)C(C)(C)C (some centres unmarked) [Boceprelvir, Boceprevir]
- IC50 (icSARS-CoV-2-nLuc [1]; [5]): 3000 nM
- raw nLuc luminescence signal per well, dose response (icSARS-CoV-2-nLuc [1]; concentration 0.444444 µM): 1318016 and 1552909 and 1027714 and 1937158 and 1341520 and 1697592 and 1866146 and 1427750
- raw nLuc luminescence signal per well, dose response (icSARS-CoV-2-nLuc [1]; concentration 1.33333 µM): 1081320 and 1354101 and 1808712 and 2111860 and 1262757 and 1236512 and 1094043 and 1751641
- raw nLuc luminescence signal per well, dose response (icSARS-CoV-2-nLuc [1]; concentration 12 µM): 325338 and 397893 and 288277 and 313675 and 434098 and 457388 and 421160 and 498406
- raw nLuc luminescence signal per well, dose response (icSARS-CoV-2-nLuc [1]; concentration 36 µM): 152331 and 158422 and 131796 and 134954 and 143730 and 155578 and 143192 and 145460

SMILES: CC(C)C(=O)OC[C@H]1O[C@@H](n2ccc(NO)nc2=O)[C@H](O)[C@@H]1O [Molnupiravir]
- IC50 (icSARS-CoV-2-nLuc [1]; [5]): 1200 nM
- raw nLuc luminescence signal per well, dose response (icSARS-CoV-2-nLuc [1]; concentration 4 µM): 595475 and 830276 and 640577 and 536261 and 913575 and 492391 and 665617 and 629700
- raw nLuc luminescence signal per well, dose response (icSARS-CoV-2-nLuc [1]; concentration 12 µM): 258630 and 294602 and 224846 and 411089 and 320496 and 281484 and 318686 and 264637
- raw nLuc luminescence signal per well, dose response (icSARS-CoV-2-nLuc [1]; concentration 36 µM): 206765 and 173526 and 155560 and 157303 and 194898 and 197104 and 194373 and 153593

SMILES: CCCC[C@H](NC(=O)[C@@H]1[C@@H]2[C@H](CN1C(=O)[C@@H](NC(=O)NC1(CS(=O)(=O)C(C)(C)C)CCCCC1)C(C)(C)C)C2(C)C)C(=O)C(=O)NC1CC1 [Naraprelvir]
- raw nLuc luminescence signal per well, dose response (icSARS-CoV-2-nLuc [1]; concentration 0.00548697 µM): 1369356 and 1475085 and 1731318 and 2527784 and 1481798 and 1643468 and 2199354 and 1849240
- raw nLuc luminescence signal per well, dose response (icSARS-CoV-2-nLuc [1]; concentration 0.0493827 µM): 1943993 and 1719572 and 1531026 and 1265407 and 2037762 and 2296036 and 2164802 and 2297300
- raw nLuc luminescence signal per well, dose response (icSARS-CoV-2-nLuc [1]; concentration 36 µM): 156020 and 155359 and 134274 and 128833 and 143226 and 151190 and 148617 and 136366

SMILES: CCCC[C@H](NC(=O)[C@@H]1[C@@H]2[C@H](CN1C(=O)[C@@H](NC(=O)NC1(CS(=O)(=O)C(C)(C)C)CCCCC1)C(C)(C)C)C2(C)C)C(=O)C(=O)NC1CC1 [Narlaprevir]
- IC50 (icSARS-CoV-2-nLuc [1]; [5]): 2000 nM

SMILES: CC(C)(C)[C@H](NC(=O)C(F)(F)F)C(=O)N1C[C@H]2[C@@H]([C@H]1C(=O)N[C@H](C#N)C[C@@H]1CCNC1=O)C2(C)C [Nirmatrelvir]
- IC50 (icSARS-CoV-2-nLuc [1]; [5]): 30 nM
- raw nLuc luminescence signal per well, dose response (icSARS-CoV-2-nLuc [1]; concentration 0.148148 µM): 129461 and 120874 and 136852 and 130464 and 147289 and 142579 and 149179 and 144629
- raw nLuc luminescence signal per well, dose response (icSARS-CoV-2-nLuc [1]; concentration 0.444444 µM): 144250 and 143681 and 125477 and 126336 and 137581 and 142321 and 138240 and 131508
- raw nLuc luminescence signal per well, dose response (icSARS-CoV-2-nLuc [1]; concentration 1.33333 µM): 118306 and 118449 and 125083 and 124306 and 125230 and 130577 and 130784 and 122912
- raw nLuc luminescence signal per well, dose response (icSARS-CoV-2-nLuc [1]; concentration 4 µM): 141288 and 139348 and 122581 and 121573 and 133806 and 135394 and 143645 and 132419
- raw nLuc luminescence signal per well, dose response (icSARS-CoV-2-nLuc [1]; concentration 12 µM): 120474 and 114610 and 123671 and 120946 and 130686 and 127115 and 126419 and 123917
- raw nLuc luminescence signal per well, dose response (icSARS-CoV-2-nLuc [1]; concentration 36 µM): 145649 and 139944 and 128235 and 120973 and 144302 and 134374 and 139812 and 128239

SMILES: CCC(CC)COC(=O)[C@H](C)N[P@](=O)(OC[C@H]1O[C@@](C#N)(c2ccc3c(N)ncnn23)[C@H](O)[C@@H]1O)Oc1ccccc1 [REM, Remdesivir]
- antiviral activity (raw luminescence signal per well) (icSARS-CoV-2-nLuc [1]): 150661 and 137685 and 146593 and 141302
- IC50 (icSARS-CoV-2-nLuc [1]; Severe acute respiratory syndrome coronavirus 2, A549-ACE2, 24 h, read-out: IC50 against icSARS-CoV-2-nLuc, luminescence data): 110 nM
- inhibition at 10 µM (icSARS-CoV-2-nLuc [1]; Severe acute respiratory syndrome coronavirus 2, A549-ACE2, 24 h, read-out: inhibition of the virus growth, single point screening): ≥ 90%
- raw nLuc luminescence signal per well, dose response (icSARS-CoV-2-nLuc [1]; concentration 0.444444 µM): 158425 and 172179 and 190756 and 205337
- raw nLuc luminescence signal per well, dose response (icSARS-CoV-2-nLuc [1]; concentration 4 µM): 140393 and 141108 and 138540
- raw nLuc luminescence signal per well, dose response (icSARS-CoV-2-nLuc [1]; concentration 36 µM): 142704 and 141754 and 139812
- IC50 (icSARS-CoV-2-nLuc [2]): 110 nM
- MMV hits Cytotoxicity testing, raw plate signal (C3 cell line; REM 0.0175781 µM): 281684 and 292421
- MMV hits Cytotoxicity testing, raw plate signal (C3 cell line; REM 0.0351562 µM): 291406 and 276805
- MMV hits Cytotoxicity testing, raw plate signal (C3 cell line; REM 0.0703125 µM): 281356 and 294787
- MMV hits Cytotoxicity testing, raw plate signal (C3 cell line; REM 0.140625 µM): 287615 and 296564
- MMV hits Cytotoxicity testing, raw plate signal (C3 cell line; REM 0.28125 µM): 294079 and 296093
- MMV hits Cytotoxicity testing, raw plate signal (C3 cell line; REM 0.5625 µM): 294522 and 291744
- MMV hits Cytotoxicity testing, raw plate signal (C3 cell line; REM 1.125 µM): 302792 and 294805
- MMV hits Cytotoxicity testing, raw plate signal (C3 cell line; REM 2.25 µM): 325677 and 303163
- MMV hits Cytotoxicity testing, raw plate signal (C3 cell line; REM 4.5 µM): 318660 and 288026
- Low (luminescence signal) (icSARS-CoV-2-nLuc [3]): 335845.000 and 285428.000 and 332082.000 and 282797.000
- Mid % (icSARS-CoV-2-nLuc [3]): 82.63% and 75.37% and 74.20% and 71.84%
- Mid (luminescence signal) (icSARS-CoV-2-nLuc [3]): 685741.000 and 855540.000 and 882878.000 and 938084.000
- Midpc (icSARS-CoV-2-nLuc [3]): 82.63 and 75.37 and 74.20 and 71.84
- %Spec (icSARS-CoV-2-nLuc [4]): 89.5% and 90.0% and 90.1%
- Luminescence signal, Mean (Low signal) (icSARS-CoV-2-nLuc [4]): 181028.44 and 176326.81 and 171413.00
- Luminescence signal, Mean (Mid signal) (icSARS-CoV-2-nLuc [4]): 237318.53 and 220683.44 and 197501.22

SMILES: CC(C)c1nc(CN(C)C(=O)N[C@H](C(=O)N[C@@H](Cc2ccccc2)C[C@H](O)[C@H](Cc2ccccc2)NC(=O)OCc2cncs2)C(C)C)cs1 [Ritonavir]
- IC50 (icSARS-CoV-2-nLuc [1]; [5]): 7200 nM
- raw nLuc luminescence signal per well, dose response (icSARS-CoV-2-nLuc [1]; concentration 0.444444 µM): 2035673 and 1546345 and 1888256 and 1167395 and 1955627 and 1676062 and 1569839 and 1463523
- raw nLuc luminescence signal per well, dose response (icSARS-CoV-2-nLuc [1]; concentration 4 µM): 1601511 and 1681837 and 928783 and 1028382 and 1282975 and 1526902 and 1006334 and 1132442
- raw nLuc luminescence signal per well, dose response (icSARS-CoV-2-nLuc [1]; concentration 36 µM): 183316 and 177778 and 167818 and 167859 and 159406 and 217854 and 184869 and 201752
